Reference: paper PMC8222254, “Self-assembly of an anion receptor with metal-dependent kinase inhibition and potent in vitro anti-cancer properties” (Nature Communications, 2021)
“And” between values parts separate entries of the source, which are not always exact repeats. Identical values can stand only once.

Key:
Assay in all cases: Kinase inhibition screen, cell-free 33P ATP assay at 10 μM
Assay type in all cases: biochemical
[1] = target: 140 purified human kinases (Homo sapiens, UniProt O75582)
Summary of the method: (§1)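 Radiometric ^33P ATP cell-free format with purified enzymes; both complexes run at 10 μM in duplicate, results plotted on a kinome map via HGNC symbols.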

[2] = target: 140 purified human kinases (Homo sapiens, UniProt O96013)
Summary of the method: as §1

[3] = target: 140 purified human kinases (Homo sapiens, UniProt P45983)
Summary of the method: as §1

[4] = target: T1, 140 purified human kinases (Homo sapiens, UniProt Q12851); details: GCK
T1 sequence (Q12851 1-820): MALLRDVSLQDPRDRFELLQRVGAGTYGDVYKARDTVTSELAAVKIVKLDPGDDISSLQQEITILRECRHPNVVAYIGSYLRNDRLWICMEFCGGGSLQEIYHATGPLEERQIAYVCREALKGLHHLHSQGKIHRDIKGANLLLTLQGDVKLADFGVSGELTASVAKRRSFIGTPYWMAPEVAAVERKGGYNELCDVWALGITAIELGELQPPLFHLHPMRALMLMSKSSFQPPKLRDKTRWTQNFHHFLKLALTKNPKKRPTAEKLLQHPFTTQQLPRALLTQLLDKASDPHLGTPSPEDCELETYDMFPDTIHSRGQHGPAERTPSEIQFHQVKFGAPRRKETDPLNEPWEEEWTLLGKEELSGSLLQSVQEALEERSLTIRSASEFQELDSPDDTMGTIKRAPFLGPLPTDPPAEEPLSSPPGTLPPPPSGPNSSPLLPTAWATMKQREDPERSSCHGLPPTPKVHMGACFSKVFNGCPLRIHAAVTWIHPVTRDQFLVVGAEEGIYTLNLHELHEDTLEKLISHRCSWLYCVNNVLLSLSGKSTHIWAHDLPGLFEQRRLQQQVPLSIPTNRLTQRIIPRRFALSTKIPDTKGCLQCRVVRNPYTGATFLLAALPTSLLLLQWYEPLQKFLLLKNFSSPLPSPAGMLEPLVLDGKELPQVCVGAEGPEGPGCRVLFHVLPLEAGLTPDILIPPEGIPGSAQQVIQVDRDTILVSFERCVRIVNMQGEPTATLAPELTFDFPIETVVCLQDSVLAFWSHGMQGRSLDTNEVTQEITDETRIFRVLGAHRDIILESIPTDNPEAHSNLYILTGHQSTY
Summary of the method: as §1

[5] = target: 140 purified human kinases (Homo sapiens, UniProt Q16644); details: for % Activity inhibition Mean / % Activity inhibition Run 1 / % Activity inhibition Run 2 / % Activity remaining Run 1 / % Activity remaining Run 2: 10 µM
Summary of the method: as §1

[6] = target: 140 purified human kinases (Homo sapiens, UniProt Q5TCY1)
Summary of the method: as §1

[7] = target: 140 purified human kinases (Homo sapiens, UniProt Q7KZI7)
Summary of the method: as §1

[8] = target: T2, 140 purified human kinases (Homo sapiens, UniProt Q8TDC3)
T2 sequence (Q8TDC3 1-778): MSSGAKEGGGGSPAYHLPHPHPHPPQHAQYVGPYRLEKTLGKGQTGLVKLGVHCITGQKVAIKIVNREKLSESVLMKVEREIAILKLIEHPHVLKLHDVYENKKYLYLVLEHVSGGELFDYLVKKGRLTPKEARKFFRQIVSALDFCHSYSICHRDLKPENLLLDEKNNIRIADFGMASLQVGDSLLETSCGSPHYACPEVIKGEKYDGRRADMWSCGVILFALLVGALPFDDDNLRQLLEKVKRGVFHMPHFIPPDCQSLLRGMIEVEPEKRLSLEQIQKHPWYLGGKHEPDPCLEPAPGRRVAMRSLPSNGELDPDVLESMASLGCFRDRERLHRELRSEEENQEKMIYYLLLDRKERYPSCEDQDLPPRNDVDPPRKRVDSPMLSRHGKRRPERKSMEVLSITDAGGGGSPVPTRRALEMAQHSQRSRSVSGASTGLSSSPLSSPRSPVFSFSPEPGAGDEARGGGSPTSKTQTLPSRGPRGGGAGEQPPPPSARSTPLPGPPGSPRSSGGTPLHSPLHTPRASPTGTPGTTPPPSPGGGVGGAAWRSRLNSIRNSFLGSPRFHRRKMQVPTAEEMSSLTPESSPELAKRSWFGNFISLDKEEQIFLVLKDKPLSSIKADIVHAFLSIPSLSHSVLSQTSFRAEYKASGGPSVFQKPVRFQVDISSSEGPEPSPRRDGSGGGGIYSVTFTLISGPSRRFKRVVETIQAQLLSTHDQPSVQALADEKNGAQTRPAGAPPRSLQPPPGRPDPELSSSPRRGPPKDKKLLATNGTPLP
Summary of the method: as §1

140 purified human kinases (Homo sapiens, UniProt P45983), sequence (P45983 whole entry): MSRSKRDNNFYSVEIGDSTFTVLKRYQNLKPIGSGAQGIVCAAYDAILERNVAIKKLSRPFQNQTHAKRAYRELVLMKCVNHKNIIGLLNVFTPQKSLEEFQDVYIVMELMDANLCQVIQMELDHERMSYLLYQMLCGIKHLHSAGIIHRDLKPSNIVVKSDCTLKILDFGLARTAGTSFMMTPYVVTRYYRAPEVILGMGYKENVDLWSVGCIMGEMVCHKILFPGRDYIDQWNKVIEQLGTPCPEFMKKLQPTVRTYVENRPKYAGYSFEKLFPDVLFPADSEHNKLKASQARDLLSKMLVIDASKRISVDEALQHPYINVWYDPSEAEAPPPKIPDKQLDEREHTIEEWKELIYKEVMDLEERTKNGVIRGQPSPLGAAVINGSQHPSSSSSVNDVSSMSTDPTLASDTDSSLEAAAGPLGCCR
140 purified human kinases (Homo sapiens, UniProt Q5TCY1), sequence (Q5TCY1 whole entry): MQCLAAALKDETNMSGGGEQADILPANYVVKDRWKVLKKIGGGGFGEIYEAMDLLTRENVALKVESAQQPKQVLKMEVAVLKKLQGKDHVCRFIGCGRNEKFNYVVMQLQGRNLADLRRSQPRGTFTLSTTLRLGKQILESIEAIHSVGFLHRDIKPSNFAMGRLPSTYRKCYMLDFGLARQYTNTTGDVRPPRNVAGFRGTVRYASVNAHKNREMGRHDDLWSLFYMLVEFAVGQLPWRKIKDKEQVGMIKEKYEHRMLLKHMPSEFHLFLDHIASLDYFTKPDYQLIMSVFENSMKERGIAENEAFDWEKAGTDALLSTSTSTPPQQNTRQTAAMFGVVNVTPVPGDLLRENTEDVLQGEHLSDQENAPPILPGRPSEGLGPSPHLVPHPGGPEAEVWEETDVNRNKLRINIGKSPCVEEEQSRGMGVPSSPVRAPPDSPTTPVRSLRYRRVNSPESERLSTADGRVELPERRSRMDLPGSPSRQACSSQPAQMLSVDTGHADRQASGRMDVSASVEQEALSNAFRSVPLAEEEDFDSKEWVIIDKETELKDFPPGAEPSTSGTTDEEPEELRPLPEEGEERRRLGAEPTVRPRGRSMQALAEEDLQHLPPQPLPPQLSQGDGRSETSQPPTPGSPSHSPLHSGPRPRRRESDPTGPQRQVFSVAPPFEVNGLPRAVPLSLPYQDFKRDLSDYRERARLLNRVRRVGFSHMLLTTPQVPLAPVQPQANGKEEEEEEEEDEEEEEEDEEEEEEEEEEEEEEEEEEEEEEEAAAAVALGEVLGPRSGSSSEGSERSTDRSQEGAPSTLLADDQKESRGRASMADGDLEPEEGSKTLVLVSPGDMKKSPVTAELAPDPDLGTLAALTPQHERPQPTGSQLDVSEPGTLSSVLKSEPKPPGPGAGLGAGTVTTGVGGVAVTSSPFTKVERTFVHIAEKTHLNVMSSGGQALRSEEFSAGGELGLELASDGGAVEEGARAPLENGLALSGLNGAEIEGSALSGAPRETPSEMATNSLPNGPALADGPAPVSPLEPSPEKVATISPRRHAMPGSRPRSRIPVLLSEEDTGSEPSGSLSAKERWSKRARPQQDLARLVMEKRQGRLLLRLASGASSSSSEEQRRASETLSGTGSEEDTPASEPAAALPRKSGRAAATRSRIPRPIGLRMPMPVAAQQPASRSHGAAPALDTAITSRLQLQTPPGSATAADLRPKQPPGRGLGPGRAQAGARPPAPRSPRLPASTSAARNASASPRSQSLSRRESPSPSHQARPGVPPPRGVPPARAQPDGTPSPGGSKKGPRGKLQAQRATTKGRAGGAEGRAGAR
140 purified human kinases (Homo sapiens, UniProt O75582), sequence (O75582 whole entry): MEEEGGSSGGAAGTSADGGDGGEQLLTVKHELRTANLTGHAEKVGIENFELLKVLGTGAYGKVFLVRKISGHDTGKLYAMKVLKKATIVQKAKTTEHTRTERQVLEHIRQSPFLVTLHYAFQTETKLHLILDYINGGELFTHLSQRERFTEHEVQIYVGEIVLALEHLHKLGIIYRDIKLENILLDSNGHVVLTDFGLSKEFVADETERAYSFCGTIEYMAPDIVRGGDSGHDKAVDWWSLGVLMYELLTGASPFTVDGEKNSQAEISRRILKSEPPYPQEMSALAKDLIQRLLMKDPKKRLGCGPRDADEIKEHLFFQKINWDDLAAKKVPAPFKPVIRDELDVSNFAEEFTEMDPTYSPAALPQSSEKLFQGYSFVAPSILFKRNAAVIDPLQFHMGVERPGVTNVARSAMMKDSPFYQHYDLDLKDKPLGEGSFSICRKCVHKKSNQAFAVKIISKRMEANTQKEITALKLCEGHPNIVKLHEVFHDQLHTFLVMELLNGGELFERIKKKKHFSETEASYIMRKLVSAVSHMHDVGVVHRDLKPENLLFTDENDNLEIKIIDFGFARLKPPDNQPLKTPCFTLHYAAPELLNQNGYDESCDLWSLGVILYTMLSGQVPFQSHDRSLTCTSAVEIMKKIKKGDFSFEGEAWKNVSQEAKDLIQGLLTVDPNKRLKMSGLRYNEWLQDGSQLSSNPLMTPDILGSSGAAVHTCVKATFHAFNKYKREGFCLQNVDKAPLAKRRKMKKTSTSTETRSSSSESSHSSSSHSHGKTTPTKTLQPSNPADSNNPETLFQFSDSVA
140 purified human kinases (Homo sapiens, UniProt Q16644), sequence (Q16644 whole entry): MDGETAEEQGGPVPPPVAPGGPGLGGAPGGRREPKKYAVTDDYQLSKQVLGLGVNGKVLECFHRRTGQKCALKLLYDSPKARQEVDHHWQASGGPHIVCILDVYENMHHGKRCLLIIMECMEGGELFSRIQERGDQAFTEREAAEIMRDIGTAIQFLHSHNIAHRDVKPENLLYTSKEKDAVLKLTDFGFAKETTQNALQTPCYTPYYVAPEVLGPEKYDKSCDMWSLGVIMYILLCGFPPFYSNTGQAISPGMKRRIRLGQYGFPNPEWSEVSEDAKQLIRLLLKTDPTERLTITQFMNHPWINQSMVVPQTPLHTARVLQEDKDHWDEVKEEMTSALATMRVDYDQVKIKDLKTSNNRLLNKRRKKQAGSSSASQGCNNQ
140 purified human kinases (Homo sapiens, UniProt O96013), sequence (O96013 whole entry): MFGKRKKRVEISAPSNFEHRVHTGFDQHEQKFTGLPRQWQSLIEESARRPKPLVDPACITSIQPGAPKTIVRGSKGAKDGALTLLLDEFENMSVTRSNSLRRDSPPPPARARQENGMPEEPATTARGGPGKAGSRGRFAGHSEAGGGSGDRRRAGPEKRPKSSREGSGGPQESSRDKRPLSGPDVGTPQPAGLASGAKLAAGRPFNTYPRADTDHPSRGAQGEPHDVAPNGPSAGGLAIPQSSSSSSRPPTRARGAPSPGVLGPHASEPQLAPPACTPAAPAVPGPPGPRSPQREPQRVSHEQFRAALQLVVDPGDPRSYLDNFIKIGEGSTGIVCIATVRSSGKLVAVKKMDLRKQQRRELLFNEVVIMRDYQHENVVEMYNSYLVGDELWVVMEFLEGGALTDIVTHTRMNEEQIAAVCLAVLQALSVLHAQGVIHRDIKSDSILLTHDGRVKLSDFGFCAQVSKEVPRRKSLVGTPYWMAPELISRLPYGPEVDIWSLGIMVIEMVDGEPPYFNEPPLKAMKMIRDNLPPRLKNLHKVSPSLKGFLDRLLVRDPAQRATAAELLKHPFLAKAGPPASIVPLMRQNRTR
140 purified human kinases (Homo sapiens, UniProt Q7KZI7), sequence (Q7KZI7 whole entry): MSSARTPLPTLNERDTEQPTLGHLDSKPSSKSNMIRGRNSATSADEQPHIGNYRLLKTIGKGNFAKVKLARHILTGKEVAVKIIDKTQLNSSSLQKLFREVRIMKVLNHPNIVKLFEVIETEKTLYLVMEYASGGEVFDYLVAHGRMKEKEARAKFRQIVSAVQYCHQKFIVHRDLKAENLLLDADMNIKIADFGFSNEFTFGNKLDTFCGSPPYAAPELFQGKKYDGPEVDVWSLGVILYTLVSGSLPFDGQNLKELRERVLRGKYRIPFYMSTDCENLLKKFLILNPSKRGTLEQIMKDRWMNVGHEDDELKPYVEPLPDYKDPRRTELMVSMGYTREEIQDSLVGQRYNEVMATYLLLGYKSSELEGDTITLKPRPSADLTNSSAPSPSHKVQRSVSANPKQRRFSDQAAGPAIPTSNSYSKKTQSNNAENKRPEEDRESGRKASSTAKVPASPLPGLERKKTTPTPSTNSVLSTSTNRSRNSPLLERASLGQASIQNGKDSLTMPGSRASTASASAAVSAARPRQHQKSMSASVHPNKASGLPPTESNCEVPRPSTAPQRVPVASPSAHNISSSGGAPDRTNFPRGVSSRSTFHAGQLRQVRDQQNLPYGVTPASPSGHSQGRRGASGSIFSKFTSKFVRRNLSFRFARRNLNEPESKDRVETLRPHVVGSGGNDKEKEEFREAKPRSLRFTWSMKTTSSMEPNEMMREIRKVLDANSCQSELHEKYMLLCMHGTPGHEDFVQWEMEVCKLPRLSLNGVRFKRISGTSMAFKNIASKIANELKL

Structure (SMILES): CC(=O)[O-].CC(=O)[O-].CC(=O)[O-].CC(=O)[O-].CC(=O)[O-].CC(=O)[O-].[Zn+2].[Zn+2].[Zn+2].c1ccc(-c2csc(NCCN(CCNc3nc(-c4ccccn4)cs3)CCNc3nc(-c4ccccn4)cs3)n2)nc1.c1ccc(-c2csc(NCCN(CCNc3nc(-c4ccccn4)cs3)CCNc3nc(-c4ccccn4)cs3)n2)nc1 [[L2Zn3]6+]
- % Inhibition, Mean ([1]; MSK1): 22%
- % Inhibition, Run 1 / Run 2 ([1]; MSK1): 27% and 18%
- mean % activity ([1]; MSK1): 78%
- % activity ([1]; MSK1, duplicate runs): 73% and 82%
- % Activation, Mean value ([2]; PAK4): 20%
- % Inhibition, Mean ([2]; PAK4): -20%
- mean % activity ([2]; PAK4): 120%
- % Activity Run 1 ([2]; PAK4, 10 µM): 110.0%
- % Activity Run 2 ([2]; PAK4, 10 µM): 130.0%
- % activity ([2]; PAK4, duplicate runs): 110% and 130%
- % Inhibition, Mean ([3]; JNK1): 5%
- mean % activity ([3]; JNK1): 95%
- % activity ([3]; JNK1, duplicate runs): 88% and 102%
- % Inhibition, Mean [4]: 83%
- % Inhibition, Run 1 / Run 2 [4]: 88% and 78%
- mean % activity [4]: 17%
- % Activity inhibition Mean ([4]; 10 µM): 83.0%
- % Activity inhibition Run 1 ([4]; 10 µM): 88%
- % Activity inhibition Run 2 ([4]; 10 µM): 78%
- % Activity remaining Run 1 ([4]; 10 µM): 12%
- % Activity remaining Run 2 ([4]; 10 µM): 22%
- % activity ([4]; duplicate runs): 12% and 22%
- % Inhibition, Mean ([5]; MAPKAP-K3): 93%
- % Inhibition, Run 1 / Run 2 ([5]; MAPKAP-K3): 94% and 92%
- mean % activity ([5]; MAPKAP-K3): 6.6%
- % Activity inhibition Mean ([5]; MAPKAP-K3): 93.0%
- % Activity inhibition Run 1 ([5]; MAPKAP-K3): 94%
- % Activity inhibition Run 2 ([5]; MAPKAP-K3): 92%
- % Activity remaining Run 1 ([5]; MAPKAP-K3): 6%
- % Activity remaining Run 2 ([5]; MAPKAP-K3): 8%
- % activity ([5]; MAPKAP-K3, duplicate runs): 5.6% and 7.6%
- % Activation, Mean value ([6]; TTBK1): 8%
- % Inhibition, Mean ([6]; TTBK1): -8%
- mean % activity ([6]; TTBK1): 108%
- % activity ([6]; TTBK1, duplicate runs): 97% and 119%
- % Inhibition, Mean ([7]; MARK2): 34%
- % Inhibition, Run 1 / Run 2 ([7]; MARK2): 45% and 24%
- mean % activity ([7]; MARK2): 66%
- % activity ([7]; MARK2, duplicate runs): 56% and 76%
- % Inhibition, Mean ([8]; BRSK1): 32%
- % Inhibition, Run 1 / Run 2 ([8]; BRSK1): 39% and 26%
- mean % activity ([8]; BRSK1): 68%
- % activity ([8]; BRSK1, duplicate runs): 62% and 74%

Structure (SMILES): [Cu+2].[Cu+2].[Cu+2].c1ccc(-c2csc(NCCN(CCNc3nc(-c4ccccn4)cs3)CCNc3nc(-c4ccccn4)cs3)n2)nc1.c1ccc(-c2csc(NCCN(CCNc3nc(-c4ccccn4)cs3)CCNc3nc(-c4ccccn4)cs3)n2)nc1 [[L2Cu3]6+]
- % Inhibition Run 1 ([1]; MSK1): 67.5%
- % Inhibition Run 2 ([1]; MSK1): 74.8%
- % Inhibition, Mean ([1]; MSK1): 71%
- mean % activity ([1]; MSK1): 29%
- % activity ([1]; MSK1, Run 1): 32.5%
- % activity ([1]; MSK1, Run 2): 25.2%
- % Inhibition Run 1 ([2]; PAK4): 23.3%
- % Inhibition Run 2 ([2]; PAK4): 36.6%
- % Inhibition, Mean ([2]; PAK4): 30%
- mean % activity ([2]; PAK4): 70%
- % activity ([2]; PAK4, Run 1): 76.7%
- % activity ([2]; PAK4, Run 2): 63.4%
- % Inhibition Run 1 ([3]; JNK1): 20.4%
- % Inhibition Run 2 ([3]; JNK1): 5.8%
- % Inhibition, Mean ([3]; JNK1): 13%
- mean % activity ([3]; JNK1): 87%
- % activity ([3]; JNK1, Run 1): 79.6%
- % activity ([3]; JNK1, Run 2): 94.2%
- % Inhibition Run 1 [4]: 83.9%
- % Inhibition Run 2 [4]: 84.3%
- % Inhibition, Mean [4]: 84%
- mean % activity [4]: 16%
- % activity ([4]; Run 1): 16.1%
- % activity ([4]; Run 2): 15.7%
- % Inhibition Run 1 ([5]; MAPKAP-K3): 98.5%
- % Inhibition Run 2 ([5]; MAPKAP-K3): 89.3%
- % Inhibition, Mean ([5]; MAPKAP-K3): 94%
- mean % activity ([5]; MAPKAP-K3): 6%
- % activity ([5]; MAPKAP-K3, Run 1): 1.5%
- % activity ([5]; MAPKAP-K3, Run 2): 10.7%
- % Activity inhibition Mean ([5]; MAPKAP-K3): 93.9%
- % Activity inhibition Run 1 ([5]; MAPKAP-K3): 98.5%
- % Activity inhibition Run 2 ([5]; MAPKAP-K3): 89.3%
- % Activity remaining Run 1 ([5]; MAPKAP-K3): 1.50%
- % Activity remaining Run 2 ([5]; MAPKAP-K3): 10.70%
- % Activation, Mean value ([6]; TTBK1): 9%
- % Inhibition Run 1 ([6]; TTBK1): 10%
- % Inhibition Run 2 ([6]; TTBK1): -27.8%
- % Inhibition, Mean ([6]; TTBK1): -9%
- mean % activity ([6]; TTBK1): 109%
- % activity ([6]; TTBK1, Run 1): 90%
- % activity ([6]; TTBK1, Run 2): 127.8%
- % Inhibition Run 1 ([7]; MARK2): 29.8%
- % Inhibition Run 2 ([7]; MARK2): 21.6%
- % Inhibition, Mean ([7]; MARK2): 26%
- mean % activity ([7]; MARK2): 74%
- % activity ([7]; MARK2, Run 1): 70.2%
- % activity ([7]; MARK2, Run 2): 78.4%
- % Inhibition Run 1 ([8]; BRSK1): 95.4%
- % Inhibition Run 2 ([8]; BRSK1): 93.2%
- % Inhibition, Mean ([8]; BRSK1): 94%
- mean % activity ([8]; BRSK1): 5.7%
- % activity ([8]; BRSK1, Run 1): 4.6%
- % activity ([8]; BRSK1, Run 2): 6.8%
- % Activity inhibition Mean ([8]; BRSK1, 10 µM): 94.3%
- % Activity inhibition Run 1 ([8]; BRSK1, 10 µM): 95.4%
- % Activity inhibition Run 2 ([8]; BRSK1, 10 µM): 93.2%
- % Activity remaining Run 1 ([8]; BRSK1, 10 µM): 4.60%
- % Activity remaining Run 2 ([8]; BRSK1, 10 µM): 6.80%
